We go through 1 compound from article PMC12114839 (2025).

Each structure is given as a SMILES string.

The assay deals with c-MYC G4 DNA (Pu27) (DNA, G4) TGAGGGTGGGTAGGGTGGGTAA
Kind of assay: UV-Vis absorbance titration. To be noted: 100 mM K+ (KCl); 10 mM Tris-HCl pH 7.4, 1 mM EDTA, 25 °C; 5 µM DNA, 0-20 µM EGCG; no Kd determined.

In the case of `O=C(O[C@@H]1Cc2c(O)cc(O)cc2O[C@@H]1c1cc(O)c(O)c(O)c1)c1cc(O)c(O)c(O)c1`, the binding result was “yes”.
